Measured values: patent US20230416240A1, “KAT6 TARGETING COMPOUNDS” (Prelude Therapeutics Incorporated, priority 2022, published 2023)

Biological target: T1, HiBit tagged KAT6A (Homo sapiens, UniProt Q92794)
T1 construct: host or cells: HeLa
Assay: HiBit KAT6A Degradation Assessment
Format: cell-based
Conditions: HeLa cells with HiBit tagged KAT6A, 18 h of treatment, 9-point serial dilution
Protocol: The degradation activity of compounds was evaluated by measuring levels of KAT6A protein using the HiBiT system. These studies were conducted in HeLa cells with a HiBit tagged KAT6A. Cells were maintained in a 37° C. incubator at 5% CO2 in EMEM (ATCC, 30-2003) supplemented with 10% v/v FBS (Gibco, 26140-079) and 1% penicillin streptomycin. Cells were seeded in 384-well plates at a density of 2,000 cells/well. Compounds dissolved in DMSO were added in 9-point serial dilution. After 18 h of treatment, KAT6A levels were measured using the Nano-Glo® HiBiT Lytic Detection System (Promega catalog number N3030) per manufacturer's instructions. Luminescence signal was measured with a multimode plate reader (Envision 2105, Perkin Elmer). Luminescence values were normalized to background and DMSO controls to quantify KAT6A for each condition. Results were analyzed, and DC50 and Dmax values obtained using a four-parameter logistic curve fit.

T1 sequence (Q92794 whole entry): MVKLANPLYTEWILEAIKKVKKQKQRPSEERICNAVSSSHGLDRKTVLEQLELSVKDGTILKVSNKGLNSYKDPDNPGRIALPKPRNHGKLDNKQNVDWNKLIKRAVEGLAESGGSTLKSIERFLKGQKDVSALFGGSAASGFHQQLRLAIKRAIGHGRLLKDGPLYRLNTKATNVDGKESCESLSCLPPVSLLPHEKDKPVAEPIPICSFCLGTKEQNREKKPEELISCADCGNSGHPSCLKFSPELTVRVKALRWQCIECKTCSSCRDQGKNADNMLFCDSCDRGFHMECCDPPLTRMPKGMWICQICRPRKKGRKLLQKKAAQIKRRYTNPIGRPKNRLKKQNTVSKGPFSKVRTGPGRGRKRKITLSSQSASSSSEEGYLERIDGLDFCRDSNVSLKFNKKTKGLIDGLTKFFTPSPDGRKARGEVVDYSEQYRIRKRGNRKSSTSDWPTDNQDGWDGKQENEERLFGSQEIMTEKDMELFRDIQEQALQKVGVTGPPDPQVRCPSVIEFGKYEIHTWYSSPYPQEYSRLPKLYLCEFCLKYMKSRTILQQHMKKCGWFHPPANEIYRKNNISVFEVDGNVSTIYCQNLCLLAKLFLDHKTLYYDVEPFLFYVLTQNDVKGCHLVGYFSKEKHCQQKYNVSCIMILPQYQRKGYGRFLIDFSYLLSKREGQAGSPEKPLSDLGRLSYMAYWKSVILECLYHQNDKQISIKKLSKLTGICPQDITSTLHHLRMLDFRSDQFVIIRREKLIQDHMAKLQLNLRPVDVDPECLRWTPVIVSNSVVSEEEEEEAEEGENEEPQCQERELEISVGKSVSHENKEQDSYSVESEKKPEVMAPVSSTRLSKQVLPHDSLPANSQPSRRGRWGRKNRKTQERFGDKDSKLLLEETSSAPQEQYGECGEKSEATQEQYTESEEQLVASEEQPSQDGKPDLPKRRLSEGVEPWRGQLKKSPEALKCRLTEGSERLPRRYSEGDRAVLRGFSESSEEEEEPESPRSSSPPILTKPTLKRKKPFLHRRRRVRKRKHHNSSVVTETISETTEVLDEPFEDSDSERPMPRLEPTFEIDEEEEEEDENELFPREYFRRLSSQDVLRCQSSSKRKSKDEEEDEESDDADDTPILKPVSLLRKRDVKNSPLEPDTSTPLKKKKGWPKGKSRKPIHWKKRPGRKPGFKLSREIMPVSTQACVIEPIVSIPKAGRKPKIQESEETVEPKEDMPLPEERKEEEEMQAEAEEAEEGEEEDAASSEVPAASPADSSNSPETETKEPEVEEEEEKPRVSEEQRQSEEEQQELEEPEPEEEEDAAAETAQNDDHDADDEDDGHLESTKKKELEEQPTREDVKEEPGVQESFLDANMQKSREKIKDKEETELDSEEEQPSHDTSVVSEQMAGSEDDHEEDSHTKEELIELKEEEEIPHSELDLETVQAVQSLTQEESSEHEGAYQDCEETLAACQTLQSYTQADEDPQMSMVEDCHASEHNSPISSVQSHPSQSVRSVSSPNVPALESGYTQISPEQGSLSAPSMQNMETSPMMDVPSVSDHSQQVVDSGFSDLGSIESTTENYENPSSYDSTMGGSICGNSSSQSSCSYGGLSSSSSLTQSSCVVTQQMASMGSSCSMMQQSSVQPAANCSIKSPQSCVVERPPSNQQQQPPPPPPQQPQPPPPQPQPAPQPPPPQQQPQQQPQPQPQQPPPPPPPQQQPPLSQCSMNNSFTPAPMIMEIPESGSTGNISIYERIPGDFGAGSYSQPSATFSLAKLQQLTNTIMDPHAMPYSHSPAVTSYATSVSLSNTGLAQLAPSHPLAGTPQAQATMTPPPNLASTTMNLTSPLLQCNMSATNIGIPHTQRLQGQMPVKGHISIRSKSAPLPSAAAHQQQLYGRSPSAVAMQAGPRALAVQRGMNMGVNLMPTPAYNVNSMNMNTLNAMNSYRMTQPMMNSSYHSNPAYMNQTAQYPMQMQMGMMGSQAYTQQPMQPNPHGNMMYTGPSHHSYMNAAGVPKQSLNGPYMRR

Structure (SMILES) | DC50 [nM] | Dmax [%]
COc1cc(Cn2cccn2)cc2onc(NS(=O)(=O)c3cccc(N4CC5(CCN(CC6(C)CCN(c7ccc8c(c7)C(=O)N(C7CCC(=O)NC7=O)C8=O)C6)CC5)C4)c3)c12 (stereo not shown) [Example 12, N-(6-((1H-Pyrazol-1-yl)methyl)-4-methoxybenzo[d]isoxazol-3-yl)-3-(7-((1-(2-(2,6-dioxopiperidin-3-yl)-1,3-dioxoisoindolin-5-yl)-3-methylpyrrolidin-3-yl)methyl)-2,7-diazaspiro[3.5]nonan-2-yl)benzenesulfonamide] | < 10 | 50 to 75
COc1cc(Cn2cccn2)cc2onc(NS(=O)(=O)c3cccc(N4CC5(CCN(CC6(F)CCN(c7ccc8c(c7)C(=O)N(C7CCC(=O)NC7=O)C8=O)C6)CC5)C4)c3)c12 (stereo not shown) [Example 13, N-(6-((1H-Pyrazol-1-yl)methyl)-4-methoxybenzo[d]isoxazol-3-yl)-3-(7-((1-(2-(2,6-dioxopiperidin-3-yl)-1,3-dioxoisoindolin-5-yl)-3-fluoropyrrolidin-3-yl)methyl)-2,7-diazaspiro[3.5]nonan-2-yl)benzenesulfonamide] | 10 to 100 | 50 to 75
COc1cc(Cn2cccn2)cc2onc(NS(=O)(=O)c3cccc(N4CCC5(CC4)CN(C[C@@H]4CCN(c6ccc7c(c6)C(=O)N(C6CCC(=O)NC6=O)C7=O)C4)C5)c3)c12 (stereo partly drawn) [Example 14, N-(6-((1H-Pyrazol-1-yl)methyl)-4-methoxybenzo[d]isoxazol-3-yl)-3-(2-(((3S)-1-(2-(2,6-dioxopiperidin-3-yl)-1,3-dioxoisoindolin-5-yl)pyrrolidin-3-yl)methyl)-2,7-diazaspiro[3.5]nonan-7-yl)benzenesulfonamide] | < 10 | 50 to 75
COc1cc(Cn2cccn2)cc2onc(NS(=O)(=O)c3cccc(N4CCC5(CCN(C[C@@H]6CCN(c7ccc8c(c7)C(=O)N(C7CCC(=O)NC7=O)C8=O)C6)CC5)C4)c3)c12 (stereo partly drawn) [Example 15, N-(6-((1H-Pyrazol-1-yl)methyl)-4-methoxybenzo[d]isoxazol-3-yl)-3-(8-(((3S)-1-(2-(2,6-dioxopiperidin-3-yl)-1,3-dioxoisoindolin-5-yl)pyrrolidin-3-yl)methyl)-2,8-diazaspiro[4.5]decan-2-yl)benzenesulfonamide] | < 10 | 50 to 75
COc1cc(Cn2cccn2)cc2onc(NS(=O)(=O)c3cccc(N4CC5(CCN(C[C@@H]6CCN(c7ccc8c(c7)C(=O)N(C7CCC(=O)NC7=O)C8=O)C6)CC5)C4)c3)c12 (stereo partly drawn) [Example 16, N-(6-((1H-Pyrazol-1-yl)methyl)-4-methoxybenzo[d]isoxazol-3-yl)-3-(7-(((3S)-1-(2-(2,6-dioxopiperidin-3-yl)-1,3-dioxoisoindolin-5-yl)pyrrolidin-3-yl)methyl)-2,7-diazaspiro[3.5]nonan-2-yl)benzenesulfonamide] | < 10 | > 75
COc1cc(Cn2cccn2)cc2onc(NS(=O)(=O)c3cccc(N4CCN(CCOC5CCN(c6ccc7c(c6)C(=O)N(C6CCC(=O)NC6=O)C7=O)CC5)CC4)c3)c12 (stereo not shown) [Example 17, N-(6-((1H-Pyrazol-1-yl)methyl)-4-methoxybenzo[d]isoxazol-3-yl)-3-(4-(2-((1-(2-(2,6-dioxopiperidin-3-yl)-1,3-dioxoisoindolin-5-yl)piperidin-4-yl)oxy)ethyl)-piperazin-1-yl)benzenesulfonamide] |  | 25 to 50
COc1cc(Cn2cccn2)cc2onc(NS(=O)(=O)c3cccc(N4CCN(CC5CN(c6ccc7c(c6)C(=O)N(C6CCC(=O)NC6=O)C7=O)CCO5)CC4)c3)c12 (stereo not shown) [Example 18, N-(6-((1H-Pyrazol-1-yl)methyl)-4-methoxybenzo[d]isoxazol-3-yl)-3-(4-((4-(2-(2,6-dioxopiperidin-3-yl)-1,3-dioxoisoindolin-5-yl)morpholin-2-yl)methyl)piperazin-1-yl)benzenesulfonamide] |  | 25 to 50
COc1cc(Cn2cccn2)cc2onc(NS(=O)(=O)c3cccc(N4CCN(CC5CC6(CCN(c7ccc8c(c7)C(=O)N(C7CCC(=O)NC7=O)C8=O)CC6)C5)CC4)c3)c12 (stereo not shown) [Example 19, N-(6-((1H-Pyrazol-1-yl)methyl)-4-methoxybenzo[d]isoxazol-3-yl)-3-(4-((7-(2-(2,6-dioxopiperidin-3-yl)-1,3-dioxoisoindolin-5-yl)-7-azaspiro[3.5]nonan-2-yl)methyl)piperazin-1-yl)benzenesulfonamide] | 10 to 100 | 50 to 75
COc1cc(Cn2cccn2)cc2onc(NS(=O)(=O)c3cccc(N4CCC5(CCN(CC6CCN(c7ccc8c(c7)C(=O)N(C7CCC(=O)NC7=O)C8=O)C6)CC5)CC4)c3)c12 (stereo not shown) [Example 20, N-(6-((1H-Pyrazol-1-yl)methyl)-4-methoxybenzo[d]isoxazol-3-yl)-3-(9-((1-(2-(2,6-dioxopiperidin-3-yl)-1,3-dioxoisoindolin-5-yl)pyrrolidin-3-yl)methyl)-3,9-diazaspiro[5.5]undecan-3-yl)benzenesulfonamide] | < 10 | > 75
COc1cc(Cn2cccn2)cc2onc(NS(=O)(=O)c3cccc(N4CCN(CC5CCN(c6ccc7c(c6)C(=O)N(C6CCC(=O)NC6=O)C7=O)C5)C(C)(C)C4)c3)c12 (stereo not shown) [Example 21, N-(6-((1H-Pyrazol-1-yl)methyl)-4-methoxybenzo[d]isoxazol-3-yl)-3-(4-((1-(2-(2,6-dioxopiperidin-3-yl)-1,3-dioxoisoindolin-5-yl)pyrrolidin-3-yl)methyl)-3,3-dimethylpiperazin-1-yl)benzenesulfonamide] | 100 to 1000 | 50 to 75
COc1cc(Cn2cccn2)cc2onc(NS(=O)(=O)c3cccc(N4CC5(CCN(C6CC7(CCN(c8ccc9c(c8)C(=O)N(C8CCC(=O)NC8=O)C9=O)C7)C6)CC5)C4)c3)c12 (stereo not shown) [Example 22, N-(6-((1H-Pyrazol-1-yl)methyl)-4-methoxybenzo[d]isoxazol-3-yl)-3-(7-(6-(2-(2,6-dioxopiperidin-3-yl)-1,3-dioxoisoindolin-5-yl)-6-azaspiro[3.4]octan-2-yl)-2,7-diazaspiro[3.5]nonan-2-yl)benzenesulfonamide] | < 10 | 50 to 75
COc1cc(Cn2cccn2)cc2onc(NS(=O)(=O)c3cccc(N4CCC(CN5CCC(Oc6ccc7c(c6)C(=O)N(C6CCC(=O)NC6=O)C7=O)CC5)C4)c3)c12 (stereo not shown) [Example 23, N-(6-((1H-Pyrazol-1-yl)methyl)-4-methoxybenzo[d]isoxazol-3-yl)-3-(3-((4-((2-(2,6-dioxopiperidin-3-yl)-1,3-dioxoisoindolin-5-yl)oxy)piperidin-1-yl)methyl)pyrrolidin-1-yl)benzenesulfonamide] |  | 25 to 50
COc1cc(Cn2cccn2)cc2onc(NS(=O)(=O)c3cccc(N4CCN(C(=O)C5CCN(c6ccc7c(c6)C(=O)N(C6CCC(=O)NC6=O)C7=O)C5)CC4)c3)c12 (stereo not shown) [Example 24, N-(6-((1H-pyrazol-1-yl)methyl)-4-methoxybenzo[d]isoxazol-3-yl)-3-(4-(1-(2-(2,6-dioxopiperidin-3-yl)-1,3-dioxoisoindolin-5-yl)pyrrolidine-3-carbonyl)piperazin-1-yl)benzenesulfonamide] |  | ≤ 25
COc1ccc(N2CC3(CCN(C[C@@H]4CCN(c5ccc6c(c5)C(=O)N(C5CCC(=O)NC5=O)C6=O)C4)CC3)C2)c(OC)c1S(=O)(=O)Nc1noc2cc(Cn3cccn3)cc(OC)c12 (stereo partly drawn) [Example 25, N-(6-((1H-Pyrazol-1-yl)methyl)-4-methoxybenzo[d]isoxazol-3-yl)-3-(7-(((3S)-1-(2-(2,6-dioxopiperidin-3-yl)-1,3-dioxoisoindolin-5-yl)pyrrolidin-3-yl)methyl)-2,7-diazaspiro[3.5]nonan-2-yl)-2,6-dimethoxybenzenesulfonamide] | < 10 | > 75
COc1c(N2CC3(CCN(C[C@@H]4CCN(c5ccc6c(c5)CN(C5CCC(=O)NC5=O)C6=O)C4)CC3)C2)cccc1S(=O)(=O)Nc1noc2cc(Cn3cccn3)cc(OC)c12 (stereo partly drawn) [Example 26, N-(6-((1H-Pyrazol-1-yl)methyl)-4-methoxybenzo[d]isoxazol-3-yl)-3-(7-(((3S)-1-(2-(2,6-dioxopiperidin-3-yl)-1-oxoisoindolin-5-yl)pyrrolidin-3-yl)methyl)-2,7-diazaspirononan-2-yl)-2-methoxybenzenesulfonamide] | < 10 | > 75
COc1c(N2CC3(CCN(C[C@H]4CCN(c5ccc6c(c5)CN(C5CCC(=O)NC5=O)C6=O)C4)CC3)C2)cccc1S(=O)(=O)Nc1noc2cc(Cn3cccn3)cc(OC)c12 (stereo partly drawn) [Example 27, N-(6-((1H-Pyrazol-1-yl)methyl)-4-methoxybenzo[d]isoxazol-3-yl)-3-(7-(((3R)-1-(2-(2,6-dioxopiperidin-3-yl)-1-oxoisoindolin-5-yl)pyrrolidin-3-yl)methyl)-2,7-diazaspiro[3.5]nonan-2-yl)-2-methoxybenzenesulfonamide] | < 10 | > 75
COc1cc(Cn2cccn2)cc2onc(NS(=O)(=O)c3cccc(N4CC5(CCN(C[C@@H]6CCN(c7ccc8c(c7)CN([C@H]7CCC(=O)NC7=O)C8=O)C6)CC5)C4)c3)c12 [Example 28, N-(6-((1H-Pyrazol-1-yl)methyl)-4-methoxybenzo[d]isoxazol-3-yl)-3-(7-(((S)-1-(2-((S)-2,6-dioxopiperidin-3-yl)-1-oxoisoindolin-5-yl)pyrrolidin-3-yl)methyl)-2,7-diazaspiro[3.5]nonan-2-yl)benzenesulfonamide] | < 10 | > 75
COc1cc(Cn2cccn2)cc2onc(NS(=O)(=O)c3cccc(N4CCN(CC5CCN(c6ccc(C(=O)NC7CCC(=O)NC7=O)nc6)CC5)CC4)c3)c12 (stereo not shown) [Example 29, 5-(4-((4-(3-(N-(6-((1H-Pyrazol-1-yl)methyl)-4-methoxybenzo[d]isoxazol-3-yl)sulfamoyl)phenyl)piperazin-1-yl)methyl)piperidin-1-yl)-N-(2,6-dioxopiperidin-3-yl) picolinamide] |  | 25 to 50
